According to ChEMBL document CHEMBL5661943, “ASAP - In vitro antiviral effect” (2024):
Where “and” joins values, the source holds several entries; their conditions need not be identical. Identical values can stand only once.

Tests used:
Zika virus = assay: Functional CPE-based assay to measure dose dependent changes in antiviral-drug inhibitory efficacy against Zika virus MR766 in Vero E6 miRFP670 cells (cotreated with P-gp inhibitor, CP100356). Cells are treated with antiviral candidates that are serially diluted. EC50 is reported via analysis of MTS assay as a readout of CPE. The assay has been performed by KU Leuven.; format: organism-based, Chlorocebus sabaeus, Vero C1008
dengue virus type 2 = assay: Functional assay to measure dose dependent changes in antiviral-drug inhibitory efficacy against Dengue virus type 2 New Guinea C in Vero E6 miRFP670 cells (cotreated with P-gp inhibitor, CP100356). Cells are treated with antiviral candidates that are serially diluted, following infection, cells are fixed. EC50 is reported via analysis of fluorescence intensity using high-content imager. The …; format: organism-based, Chlorocebus sabaeus, Vero C1008; conditions: for EC90: P-gp concentration 500 nM, P-gp inhibitor CP100356

## O=C(Nc1cc(Cl)cc(-c2ccc3[nH]c(C(=O)O)cc3c2)c1)OCc1ccccc1
Zika virus; Zika virus, Vero C1008
  EC50: > 25 µM
Zika virus; Zika virus, Vero C1008, Baseline response 0 %, Hill slope 14.672, Maximum measured 32.342 %, Maximum response 100 %, Minimum measured -3.566 %, P-gp concentration 500 nM, R squared 0.926, P-gp inhibitor CP100356
  EC90: > 25 µM
Dengue virus type 2; Baseline response 0 %, EC90 CI (lower) 8.977 uM, EC90 CI (upper) 21.139 uM, Hill slope -3.716, Maximum measured 111.991 %, Maximum response 100 %, Minimum measured 0.586 %, R squared 0.931
  EC90: 45 µM
Dengue virus type 2; Baseline response 0 %, Hill slope -1.036, Maximum measured 105.577 %, Maximum response 100 %, Minimum measured 51.847 %, R squared 0.535
  EC90: > 12.5 µM
Dengue virus type 2; Dengue virus, Vero C1008
  EC50: 24.9 µM
Dengue virus type 2; vero c1008
  EC50: > 12.5 µM

## O=C(NCC(F)F)[C@H](Nc1ccc2c(c1)CNC2)c1cc(F)cc2[nH]ccc12
Zika virus; Zika virus, Vero C1008
  EC50: > 50 µM
Zika virus; Zika virus, Vero C1008, Baseline response 0 %, Hill slope 0.152, Maximum measured 3.288 %, Maximum response 100 %, Minimum measured 0.363 %, P-gp concentration 500 nM, R squared 0.104, P-gp inhibitor CP100356
  EC90: > 50 µM
Dengue virus type 2; Dengue virus, Vero C1008
  EC50: > 50 µM
Dengue virus type 2; Dengue virus, Vero C1008, Maximum measured 207.16 %, Minimum measured 119.939 %
  EC90: > 50 µM

## O=C(Nc1cc2c(c(C3=CC[C@H](O)CC3)c1)CNC2)c1cc(Cl)cc2[nH]ncc12
Zika virus; Zika virus, Vero C1008
  EC50: 46.6 µM
Zika virus; Zika virus, Vero C1008, Baseline response 0 %, Hill slope 3.698, Maximum measured 56.446 %, Maximum response 100 %, Minimum measured 0.896 %, P-gp concentration 500 nM, R squared 0.945, P-gp inhibitor CP100356
  EC90: > 50 µM
Dengue virus type 2; Dengue virus, Vero C1008
  EC50: > 50 µM
Dengue virus type 2; Dengue virus, Vero C1008, Maximum measured 128.94 %, Minimum measured 80.48 %
  EC90: > 50 µM

## O=C1Cc2c(cccc2C(=O)Nc2ccc3c(c2)CCNCC3)N1
Zika virus; Zika virus, Vero C1008
  EC50: > 50 µM
Zika virus; Zika virus, Vero C1008, Maximum measured 3.486 %, Minimum measured -0.899 %, P-gp concentration 500 nM, P-gp inhibitor CP100356
  EC90: > 50 µM
Dengue virus type 2; Dengue virus, Vero C1008
  EC50: > 50 µM
Dengue virus type 2; Dengue virus, Vero C1008, Maximum measured 144.677 %, Minimum measured 92.434 %
  EC90: > 50 µM

## C=Cc1cc2c(cc1NC(=O)c1cc(F)cc3[nH]ncc13)CNC2
Zika virus; Zika virus, Vero C1008
  EC50: 5.17 µM
Zika virus; Zika virus, Vero C1008, Baseline response 0 %, EC90 CI (lower) 8.54 uM, EC90 CI (upper) 30.093 uM, Hill slope 1.942, Maximum measured 120.806 %, Maximum response 100 %, Minimum measured 10.445 %, P-gp concentration 500 nM, R squared 0.918, P-gp inhibitor CP100356
  EC90: 16 µM
Dengue virus type 2; Dengue virus, Vero C1008
  EC50: > 6.25 µM
Dengue virus type 2; Dengue virus, Vero C1008, Maximum measured 131.207 %, Minimum measured 113.262 %
  EC90: > 6.25 µM

## CNC(=O)[C@H](Nc1ccc2c(c1)CNC2)c1cc(Cl)cc2[nH]c(-c3ccccc3)nc12
Zika virus; Baseline response 0 %, EC90 CI (lower) 1.657 uM, EC90 CI (upper) 9.069 uM, Hill slope 2.736, Maximum measured 134.068 %, Maximum response 100 %, Minimum measured 11.054 %, P-gp concentration 500 nM, R squared 0.856, P-gp inhibitor CP100356
  EC90: 3.88 µM
Zika virus; Zika virus, Vero C1008
  EC50: 1.54 µM
Zika virus; Zika virus, Vero C1008, Baseline response 0 %, EC90 CI (lower) 2.457 uM, EC90 CI (upper) 4.2 uM, Hill slope 2.999, Maximum measured 107.773 %, Maximum response 100 %, Minimum measured 2.918 %, P-gp concentration 500 nM, R squared 0.982, P-gp inhibitor CP100356
  EC90: 3.21 µM
Zika virus; vero c1008
  EC50: 1.74 µM
Dengue virus type 2; Dengue virus, Vero C1008
  EC50: > 25 µM
Dengue virus type 2; Dengue virus, Vero C1008, Maximum measured 190.221 %, Minimum measured 63.084 %
  EC90: > 25 µM
Dengue virus type 2; Dengue virus, Vero C1008, Baseline response 0 %, Hill slope -0.424, Maximum measured 89.369 %, Maximum response 100 %, Minimum measured 51.028 %, R squared 0.334
  EC90: > 25 µM

## CC(C)NC(=O)[C@H](Nc1ccc2c(c1)CNC2)c1cc(Cl)cc2[nH]c(-c3ccccc3)nc12
Zika virus; Baseline response 0 %, EC90 CI (lower) 1.625 uM, EC90 CI (upper) 3.959 uM, Hill slope 3.776, Maximum measured 116.485 %, Maximum response 100 %, Minimum measured 3.087 %, P-gp concentration 500 nM, R squared 0.948, P-gp inhibitor CP100356
  EC90: 2.54 µM
Zika virus; Zika virus, Vero C1008, Maximum measured -0.317 %, Minimum measured -11.958 %, P-gp concentration 500 nM, P-gp inhibitor CP100356
  EC90: > 50 µM
Zika virus; Zika virus, Vero C1008, Baseline response 0 %, Hill slope 1.53, Maximum measured 31.705 %, Maximum response 100 %, Minimum measured 3.074 %, P-gp concentration 500 nM, R squared 0.825, P-gp inhibitor CP100356
  EC90: > 3.12 µM
Dengue virus type 2; Baseline response 0 %, Hill slope -0.821, Maximum measured 139.415 %, Maximum response 100 %, Minimum measured 43.862 %, R squared 0.144
  EC90: > 50 µM
Dengue virus type 2; Baseline response 0 %, Hill slope -1.532, Maximum measured 181.616 %, Maximum response 100 %, Minimum measured 48.773 %, R squared 0.025
  EC90: > 50 µM
Dengue virus type 2; Baseline response 0 %, Hill slope -1.75, Maximum measured 104.337 %, Maximum response 100 %, Minimum measured 20.383 %, R squared 0.733
  EC90: > 12.5 µM
Dengue virus type 2; vero c1008
  EC50: 5.05 µM and > 50 µM

## Cc1cccc(-c2nc3c(C(=O)Nc4ccc5c(c4)CNC5)cc(F)cc3[nH]2)c1
Zika virus; Zika virus, Vero C1008
  EC50: > 50 µM
Zika virus; Zika virus, Vero C1008, Maximum measured 1.316 %, Minimum measured -3.721 %, P-gp concentration 500 nM, P-gp inhibitor CP100356
  EC90: > 50 µM
Dengue virus type 2; Dengue virus, Vero C1008
  EC50: > 50 µM
Dengue virus type 2; Dengue virus, Vero C1008, Maximum measured 188.282 %, Minimum measured 128.713 %
  EC90: > 50 µM

## O=C(Nc1ccc2c(c1)CNC2)c1cc(Br)cc2c1nc1n2CCCC1
Zika virus; Zika virus, Vero C1008
  EC50: > 50 µM
Zika virus; Zika virus, Vero C1008, Maximum measured -3.355 %, Minimum measured -6.068 %, P-gp concentration 500 nM, P-gp inhibitor CP100356
  EC90: > 50 µM
Dengue virus type 2; Dengue virus, Vero C1008
  EC50: > 50 µM
Dengue virus type 2; Dengue virus, Vero C1008, Maximum measured 143.517 %, Minimum measured 80.126 %
  EC90: > 50 µM

## O=C(Nc1ccc2c(c1)CN[C@H]2CCO)c1cc(F)cc2[nH]ncc12
Zika virus; Zika virus, Vero C1008
  EC50: > 50 µM
Zika virus; Zika virus, Vero C1008, Baseline response 0 %, Hill slope 1.133, Maximum measured 29.989 %, Maximum response 100 %, Minimum measured 0.147 %, P-gp concentration 500 nM, R squared 0.888, P-gp inhibitor CP100356
  EC90: > 50 µM
Dengue virus type 2; Dengue virus, Vero C1008
  EC50: > 50 µM
Dengue virus type 2; Dengue virus, Vero C1008, Baseline response 0 %, Hill slope 0.366, Maximum measured 128.215 %, Maximum response 100 %, Minimum measured 81.639 %, R squared 0.156
  EC90: > 50 µM

## O=C(NCC(F)F)[C@H](Nc1cc2c(cc1Br)CNC2)c1cc(Cl)cc(C2CC2)c1
Zika virus; Zika virus, Vero C1008
  EC50: 0.807 µM
Zika virus; Zika virus, Vero C1008, Baseline response 0 %, Hill slope 18.882, Maximum measured 131.702 %, Maximum response 100 %, Minimum measured 12.911 %, P-gp concentration 500 nM, R squared 0.859, P-gp inhibitor CP100356
  EC90: 0.907 µM
Dengue virus type 2; Dengue virus, Vero C1008
  EC50: > 50 µM
Dengue virus type 2; Dengue virus, Vero C1008, Maximum measured 177.59 %, Minimum measured 74.788 %
  EC90: > 50 µM

## O=C(Nc1ccc2c(c1)CN[C@H]2CC1CC1)c1cc(F)cc2[nH]ncc12
Zika virus; Zika virus, Vero C1008
  EC50: 1.64 µM
Zika virus; Zika virus, Vero C1008, Baseline response 0 %, Hill slope 24.148, Maximum measured 124.993 %, Maximum response 100 %, Minimum measured 2.983 %, P-gp concentration 500 nM, R squared 0.936, P-gp inhibitor CP100356
  EC90: 1.79 µM
Dengue virus type 2; Dengue virus, Vero C1008
  EC50: 1.03 µM

## O=C(Nc1ccc2c(c1)CNC2)c1cc(F)cc2[nH]c(-c3ccc(F)cc3)nc12
Zika virus; Zika virus, Vero C1008
  EC50: > 50 µM
Zika virus; Zika virus, Vero C1008, Baseline response 0 %, Hill slope 2.324, Maximum measured 27.659 %, Maximum response 100 %, Minimum measured -7.999 %, P-gp concentration 500 nM, R squared 0.219, P-gp inhibitor CP100356
  EC90: > 50 µM
Dengue virus type 2; Dengue virus, Vero C1008
  EC50: > 50 µM
Dengue virus type 2; Dengue virus, Vero C1008, Maximum measured 176.058 %, Minimum measured 96.502 %
  EC90: > 50 µM

## O=C(Nc1cc2c(c(C3=CCOCC3)c1)CNC2)c1cc(F)cc2[nH]ncc12
Zika virus; Zika virus, Vero C1008
  EC50: 7.33 µM
Zika virus; Zika virus, Vero C1008, Baseline response 0 %, EC90 CI (lower) 5.793 uM, EC90 CI (upper) 20.937 uM, Hill slope 5.397, Maximum measured 131.01 %, Maximum response 100 %, Minimum measured -1.308 %, P-gp concentration 500 nM, R squared 0.937, P-gp inhibitor CP100356
  EC90: 11 µM
Dengue virus type 2; Dengue virus, Vero C1008
  EC50: > 25 µM
Dengue virus type 2; Dengue virus, Vero C1008, Maximum measured 218.898 %, Minimum measured 80.524 %
  EC90: > 25 µM

## O=C(Nc1ccc2c(c1)CNC2)c1cc(F)c2[nH]ccc2c1
Zika virus; Zika virus, Vero C1008
  EC50: 24.5 µM
Zika virus; Zika virus, Vero C1008, Baseline response 0 %, Hill slope 0.879, Maximum measured 122.421 %, Maximum response 100 %, Minimum measured -4.109 %, P-gp concentration 500 nM, R squared 0.266, P-gp inhibitor CP100356
  EC90: > 50 µM
Dengue virus type 2; Dengue virus, Vero C1008
  EC50: < 0.391 µM
Dengue virus type 2; Dengue virus, Vero C1008, Baseline response 0 %, Hill slope 3.427, Maximum measured 127.165 %, Maximum response 100 %, Minimum measured 69.586 %, R squared 0.325
  EC90: < 0.391 µM

## CC(C)n1cc2c(C(=O)Nc3ccc4c(c3)CNC4)cc(Cl)cc2n1
Zika virus; Zika virus, Vero C1008
  EC50: 1.67 µM
  EC90: 1.93 µM
Dengue virus type 2; Dengue virus, Vero C1008
  EC50: > 12.5 µM
Dengue virus type 2; Dengue virus, Vero C1008, Maximum measured 192.332 %, Minimum measured 77.026 %
  EC90: > 12.5 µM

## O=C(Nc1ccc2c(c1)CNC2)c1cc(Cl)cc2cn[nH]c12
Zika virus; Zika virus, Vero C1008
  EC50: 3.01 µM
Zika virus; Zika virus, Vero C1008, Baseline response 0 %, EC90 CI (lower) 2.341 uM, EC90 CI (upper) 14.506 uM, Hill slope 3.321, Maximum measured 138.559 %, Maximum response 100 %, Minimum measured 2.928 %, P-gp concentration 500 nM, R squared 0.845, P-gp inhibitor CP100356
  EC90: 5.83 µM
Dengue virus type 2; Dengue virus, Vero C1008
  EC50: > 50 µM
Dengue virus type 2; Dengue virus, Vero C1008, Maximum measured 130.797 %, Minimum measured 96.2 %
  EC90: > 50 µM

## O=C(Nc1cc2c(c(-c3c[nH]c(=O)c(F)c3)c1)CNC2)c1cc(F)cc2[nH]ncc12
Zika virus; Zika virus, Vero C1008
  EC50: > 50 µM
Zika virus; Zika virus, Vero C1008, Baseline response 0 %, Hill slope 0.515, Maximum measured 9.878 %, Maximum response 100 %, Minimum measured 0.944 %, P-gp concentration 500 nM, R squared 0.362, P-gp inhibitor CP100356
  EC90: > 50 µM
Dengue virus type 2; Dengue virus, Vero C1008
  EC50: > 25 µM
Dengue virus type 2; Dengue virus, Vero C1008, Maximum measured 138.883 %, Minimum measured 79.511 %
  EC90: > 25 µM
